According to PubChem BioAssay AID2060600 (Molecular Pharmacology Branch, DTP, NCI, 2025):

Test system: 996289-038-R-J1-PDC complex spheroid viability
Test: Anticancer human tumor 996289-038-R-J1-PDC patient-derived colon adenocarcinoma cell line growth inhibition [CLK]
Conditions: for viability, T/C: stronger effect = lower value; active means viability on the fitted dose curve at most 10% of control; inactive means the rest
Summary of the method: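 Multi-cell-type spheroids combined patient-derived tumor cells with HUVEC endothelial cells and human mesenchymal stem cells. Paired agents were dosed in half-log steps down from about clinical Cmax, or from 10 microM where Cmax was unknown.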

[1] = curve of first compound, second compound 0.0316 µM
[2] = curve of first compound, second compound 0.1 µM
[3] = curve of first compound, second compound 0.316 µM
[4] = curve of first compound, second compound 1 µM
[5] = curve of first compound, second compound 3.16 µM
[6] = curve of first compound, second compound 10 µM
[7] = second compound 0.0316 µM, first compound 0.0316 µM
[8] = second compound 0.0316 µM, first compound 0.1 µM
[9] = second compound 0.0316 µM, first compound 0.316 µM
[10] = second compound 0.0316 µM, first compound 1 µM
[11] = second compound 0.1 µM, first compound 0.0316 µM
[12] = second compound 0.1 µM, first compound 0.1 µM
[13] = second compound 0.1 µM, first compound 0.316 µM
[14] = second compound 0.1 µM, first compound 1 µM
[15] = second compound 0.316 µM, first compound 0.0316 µM
[16] = second compound 0.316 µM, first compound 0.1 µM
[17] = second compound 0.316 µM, first compound 0.316 µM
[18] = second compound 0.316 µM, first compound 1 µM
[19] = second compound 1 µM, first compound 0.0316 µM
[20] = second compound 1 µM, first compound 0.1 µM
[21] = second compound 1 µM, first compound 0.316 µM
[22] = second compound 1 µM, first compound 1 µM
[23] = second compound 3.16 µM, first compound 0.0316 µM
[24] = second compound 3.16 µM, first compound 0.1 µM
[25] = second compound 3.16 µM, first compound 0.316 µM
[26] = second compound 3.16 µM, first compound 1 µM
[27] = second compound 10 µM, first compound 0.0316 µM
[28] = second compound 10 µM, first compound 0.1 µM
[29] = second compound 10 µM, first compound 0.316 µM
[30] = second compound 10 µM, first compound 1 µM
[31] = second compound 0.0316 µM, first compound 3.16 µM
[32] = second compound 0.0316 µM, first compound 10 µM
[33] = second compound 0.1 µM, first compound 3.16 µM
[34] = second compound 0.1 µM, first compound 10 µM
[35] = second compound 0.316 µM, first compound 3.16 µM
[36] = second compound 0.316 µM, first compound 10 µM
[37] = second compound 1 µM, first compound 3.16 µM
[38] = second compound 1 µM, first compound 10 µM
[39] = second compound 3.16 µM, first compound 3.16 µM
[40] = second compound 3.16 µM, first compound 10 µM
[41] = second compound 10 µM, first compound 3.16 µM
[42] = second compound 10 µM, first compound 10 µM
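Further: spheroids exposed to the agents for 7 days before readout.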

COc1c(OCCCN2CCOCC2)ccc2c3n(c(=NC(=O)c4cnc(N)nc4)nc12)CCN3 + CN1CCN(c2cc(C(=O)Nc3cc4cc(-c5cnn(C)c5)ccc4cn3)ccn2)CC1
0.00979 µM: IC50 [3]
active: viability, T/C [18] 8.17% | viability, T/C (second compound 1 µM, first compound 0.00316 µM) 2.97% | viability, T/C (second compound 1 µM, first compound 0.01 µM) 3.06% | viability, T/C [19] 3.03% | viability, T/C [20] 1.3% | viability, T/C [21] 1.59% | viability, T/C [22] 3.21% | viability, T/C (second compound 3.16 µM, first compound 0.00316 µM) 0.97% | viability, T/C (second compound 3.16 µM, first compound 0.01 µM) 0.95% | viability, T/C [23] 2.68% | viability, T/C [24] 0.71% | viability, T/C [25] 2.1% | viability, T/C [26] 1.27% | viability, T/C (second compound 10 µM, first compound 0.00316 µM) 1.28% | viability, T/C (second compound 10 µM, first compound 0.01 µM) 0.97% | viability, T/C [27] 0.74% | viability, T/C [28] 0.86% | viability, T/C [29] 0.56% | viability, T/C [30] 0.61%
< 0.00316 µM: IC50 [4] | IC50 [5] | IC50 [6]
0.0377 µM: IC50 [2]
0.0746 µM: IC50 [1]
inactive: viability, T/C (second compound 0.0316 µM, first compound 0.00316 µM) 87.7% | viability, T/C (second compound 0.0316 µM, first compound 0.01 µM) 88.8% | viability, T/C [7] 64.5% | viability, T/C [8] 43.9% | viability, T/C [9] 30.1% | viability, T/C [10] 18.7% | viability, T/C (second compound 0.1 µM, first compound 0.00316 µM) 86% | viability, T/C (second compound 0.1 µM, first compound 0.01 µM) 66.7% | viability, T/C [11] 56.4% | viability, T/C [12] 33.5% | viability, T/C [13] 24.8% | viability, T/C [14] 13.5% | viability, T/C (second compound 0.316 µM, first compound 0.00316 µM) 56.9% | viability, T/C (second compound 0.316 µM, first compound 0.01 µM) 50% | viability, T/C [15] 36.3% | viability, T/C [16] 21% | viability, T/C [17] 12.7%

COc1ccc([C@@H](O)c2cc(-c3ncnc4cc(N5CCOCC5)ccc34)c(F)cc2Cl)nn1 + CN1CCN(c2cc(C(=O)Nc3cc4cc(-c5cnn(C)c5)ccc4cn3)ccn2)CC1
active: viability, T/C [19] 3.25% | viability, T/C [20] 3.83% | viability, T/C [21] 3.78% | viability, T/C [22] 4.19% | viability, T/C [37] 3.66% | viability, T/C [38] 3.61% | viability, T/C [23] 1.19% | viability, T/C [24] 0.85% | viability, T/C [25] 1.09% | viability, T/C [26] 1.26% | viability, T/C [39] 2.9% | viability, T/C [40] 2.02% | viability, T/C [27] 0.92% | viability, T/C [28] 0.41% | viability, T/C [29] 1.74% | viability, T/C [30] 0.52% | viability, T/C [41] 0.52% | viability, T/C [42] 0.65%
6.69 µM: IC50 [2]
inactive: viability, T/C [7] 93.2% | viability, T/C [8] 94.8% | viability, T/C [9] 91.7% | viability, T/C [10] 85.7% | viability, T/C [31] 76.6% | viability, T/C [32] 50.2% | viability, T/C [11] 85.3% | viability, T/C [12] 95.1% | viability, T/C [13] 87.8% | viability, T/C [14] 79.8% | viability, T/C [33] 67.7% | viability, T/C [34] 40.8% | viability, T/C [15] 61.1% | viability, T/C [16] 64.8% | viability, T/C [17] 61.9% | viability, T/C [18] 59.8% | viability, T/C [35] 49.8% | viability, T/C [36] 27.1%
> 10 µM: IC50 [1]
3.19 µM: IC50 [3]
< 0.0316 µM: IC50 [4] | IC50 [5] | IC50 [6]

CC(Nc1ccc2c(c1)OCCn1cc(N3C(=O)OCC3C(F)F)nc1-2)C(N)=O (configuration not stated) + CNC(=O)c1ccc(Nc2nc(OC3CCCC3)c3c(-c4ccc5nc(C)oc5c4)c[nH]c3n2)c(OC)c1
> 10 µM: IC50 [1]
0.0489 µM: IC50 [5]
< 0.0316 µM: IC50 [6]
0.0453 µM: IC50 [4]
inactive: viability, T/C [7] 113% | viability, T/C [8] 92.9% | viability, T/C [9] 83.4% | viability, T/C [10] 69.1% | viability, T/C [31] 60.2% | viability, T/C [32] 49.7% | viability, T/C [11] 114% | viability, T/C [12] 97.3% | viability, T/C [13] 82.1% | viability, T/C [14] 70.9% | viability, T/C [33] 61.1% | viability, T/C [34] 47.4% | viability, T/C [15] 69.1% | viability, T/C [16] 62.3% | viability, T/C [17] 53% | viability, T/C [18] 47.4% | viability, T/C [35] 42.2% | viability, T/C [36] 32.2% | viability, T/C [19] 52.9% | viability, T/C [20] 43.7% | viability, T/C [21] 38.3% | viability, T/C [22] 31.5% | viability, T/C [37] 29.2% | viability, T/C [38] 24.4% | viability, T/C [23] 53.7% | viability, T/C [24] 44.8% | viability, T/C [25] 33.1% | viability, T/C [26] 31.5% | viability, T/C [39] 25.4% | viability, T/C [40] 21.9% | viability, T/C [27] 46.7% | viability, T/C [28] 42.8% | viability, T/C [29] 31.2% | viability, T/C [30] 30.6% | viability, T/C [41] 27.1% | viability, T/C [42] 21.8%
8.75 µM: IC50 [2]
0.655 µM: IC50 [3]

CC1(C)CCC(CN2CCN(c3ccc(C(=O)NS(=O)(=O)c4ccc(NCC5CCOCC5)c([N+](=O)[O-])c4)c(Oc4cnc5[nH]ccc5c4)c3)CC2)=C(c2ccc(Cl)cc2)C1 + CNC(=O)c1ccc(Nc2nc(OC3CCCC3)c3c(-c4ccc5nc(C)oc5c4)c[nH]c3n2)c(OC)c1
6.26 µM: IC50 [4]
7.56 µM: IC50 [3]
inactive: viability, T/C [7] 128% | viability, T/C [8] 110% | viability, T/C [9] 115% | viability, T/C [10] 127% | viability, T/C [31] 139% | viability, T/C [32] 43.5% | viability, T/C [11] 125% | viability, T/C [12] 123% | viability, T/C [13] 138% | viability, T/C [14] 119% | viability, T/C [33] 134% | viability, T/C [34] 41.9% | viability, T/C [15] 80.2% | viability, T/C [16] 82.7% | viability, T/C [17] 88.7% | viability, T/C [18] 90.7% | viability, T/C [35] 103% | viability, T/C [36] 37.5% | viability, T/C [19] 67.2% | viability, T/C [20] 67.7% | viability, T/C [21] 74% | viability, T/C [22] 74.7% | viability, T/C [37] 100% | viability, T/C [38] 31.6% | viability, T/C [23] 65% | viability, T/C [24] 61.7% | viability, T/C [25] 67.1% | viability, T/C [26] 70.7% | viability, T/C [39] 84.1% | viability, T/C [40] 32% | viability, T/C [27] 61.5% | viability, T/C [28] 59.1% | viability, T/C [29] 61.3% | viability, T/C [30] 72.7% | viability, T/C [41] 81.3% | viability, T/C [42] 27%
8.96 µM: IC50 [2]
5.76 µM: IC50 [5]
5.18 µM: IC50 [6]
9.12 µM: IC50 [1]

CCCS(=O)(=O)Nc1ccc(F)c(C(=O)c2c[nH]c3ncc(-c4ccc(Cl)cc4)cc23)c1F + CNC(=O)c1ccc(Nc2nc(OC3CCCC3)c3c(-c4ccc5nc(C)oc5c4)c[nH]c3n2)c(OC)c1
4.68 µM: IC50 [5]
4.51 µM: IC50 [6]
5.68 µM: IC50 [4]
> 10 µM: IC50 [1] | IC50 [2]
9.36 µM: IC50 [3]
inactive: viability, T/C [7] 125% | viability, T/C [8] 105% | viability, T/C [9] 120% | viability, T/C [10] 131% | viability, T/C [31] 124% | viability, T/C [32] 83.4% | viability, T/C [11] 116% | viability, T/C [12] 133% | viability, T/C [13] 124% | viability, T/C [14] 118% | viability, T/C [33] 119% | viability, T/C [34] 76.7% | viability, T/C [15] 81.2% | viability, T/C [16] 84.5% | viability, T/C [17] 82.8% | viability, T/C [18] 84.8% | viability, T/C [35] 82.7% | viability, T/C [36] 48% | viability, T/C [19] 73.2% | viability, T/C [20] 70% | viability, T/C [21] 64.9% | viability, T/C [22] 70.6% | viability, T/C [37] 64.8% | viability, T/C [38] 35.6% | viability, T/C [23] 63.8% | viability, T/C [24] 67.5% | viability, T/C [25] 64.1% | viability, T/C [26] 68.1% | viability, T/C [39] 58.4% | viability, T/C [40] 31.8% | viability, T/C [27] 62.9% | viability, T/C [28] 60.2% | viability, T/C [29] 59.8% | viability, T/C [30] 66.9% | viability, T/C [41] 60.3% | viability, T/C [42] 26.1%

CN1CCN(c2cc(C(=O)Nc3cc4cc(-c5cnn(C)c5)ccc4cn3)ccn2)CC1
active: viability, T/C (compound 1 µM) 4.43% [middle of 11 runs] | viability, T/C (compound 3.16 µM) 1.12% [middle of 11 runs] | viability, T/C (compound 10 µM) 0.43% [middle of 9 runs]
inactive: viability, T/C (compound 0.0316 µM) 102% [middle of 12 runs] | viability, T/C (compound 0.1 µM) 95.1% [middle of 12 runs] | viability, T/C (compound 0.316 µM) 71.7% [middle of 12 runs]
461 nM [middle of 10 runs]: IC50 (compound alone, run of 08/14/2023)
